ChEMBL document CHEMBL4346678, “Synthesis and anti-cancer evaluation of folic acid-peptide- paclitaxel conjugates for addressing drug resistance” (Eur J Med Chem, 2019)
Active and inactive are the calls of the source. The rule behind the calls is not given here. Starred links: 1 amine or outer side, 2 acyl side, 3 side chain; linkers in the order of their positions; H or OH if unused. Residues, ends and D or L forms follow the SMILES beside them. *: point of attachment. X1 = CC(=O)O[C@H]1C(=O)[C@@]2(C)[C@H]([C@H](OC(=O)c3ccccc3)[C@]3(O)C[C@H](OC(=O)[C@H](OC(=O)CCCCCN4C(=O)CC(*)C4=O)[C@@H](NC(=O)c4ccccc4)c4ccccc4)C(C)=C1C3(C)C)[C@]1(OC(C)=O)CO[C@@H]1C[C@@H]2O; Pteroyl = Nc1nc2ncc(CNc3ccc(C(=O)*)cc3)nc2c(=O)[nH]1; γGlu = O=C(O)[C@H](CCC(=O)[*:2])N[*:1]

Legend:
[1] = test system: MCF7/PTX; assay: Induction of apoptosis in human MCF7/PTX cells assessed as late apoptotic cells at 4 uM incubated for 12 hrs by Annexin V-FITC/propidium iodide staining based flow cytometric analysis (reference value: 0.9%); type: functional
[2] = test system: MCF7/PTX; assay: Induction of mitochondrial membrane potential loss in human MCF7/PTX cells at 3 uM incubated for 12 hrs by JC1 staining-based confocal microscopic method; type: functional, cell-based
[3] = test system: MCF7; assay: Cytotoxicity against human MCF7 cells incubated for 48 hrs by MTT assay; type: functional, cell-based; conditions: MCF7, 48 h
[4] = Half life in Wistar rat plasma at 500 ug/ml measured over 24 hrs at 37 degC by UPLC/MS analysis; type: ADME, cell-free
[5] = test system: MCF7/PTX; assay: Induction of apoptosis in human MCF7/PTX cells assessed as early apoptotic cells at 3 uM incubated for 12 hrs by Annexin V-FITC/propidium iodide staining based flow cytometric analysis (reference value: 1.1%); type: functional
[6] = target: Tubulin (Sus scrofa) (UniProt P02554+P02550); assay: Induction of porcine brain tubulin polymerization at 3 uM by fluorescence analysis
[7] = test system: MCF7/PTX; assay: Induction of membrane disruption in human MCF7/PTX cells incubated for 12 hrs by AO/EB double-staining based fluorescence microscopic method; type: functional, cell-based
[8] = test system: MCF7/PTX; assay: Induction of apoptosis in human MCF7/PTX cells assessed increase in cytochrome-c expression in cytoplasm at 3 uM incubated for 2 hrs by Western blot analysis; type: functional, cell-based
[9] = test system: MCF7/PTX; assay: Induction of apoptosis in human MCF7/PTX cells assessed as early apoptotic cells at 6 uM incubated for 12 hrs by Annexin V-FITC/propidium iodide staining based flow cytometric analysis (reference value: 1.1%); type: functional
[10] = Antitumor activity against […] cells xenografted in ICR mouse assessed as reduction in tumor volume at 12 umol/kg administered once every 2 days via peritumoral route for 2 weeks measured for 22 days by caliper analysis relative to control; type: functional
[11] = test system: MCF7/PTX; assay: Induction of apoptosis in human MCF7/PTX cells assessed as late apoptotic cells at 0.5 uM incubated for 12 hrs by Annexin V-FITC/propidium iodide staining based flow cytometric analysis (reference value: 0.9%); type: functional
[12] = test system: MCF7/PTX; assay: Induction of apoptosis in human MCF7/PTX cells assessed as live cells at 1 uM incubated for 12 hrs by Annexin V-FITC/propidium iodide staining based flow cytometric analysis (reference value: 95.9%); type: functional
[13] = test system: MCF7/PTX; assay: Induction of apoptosis in human MCF7/PTX cells assessed as necrotic cells at 3 uM incubated for 12 hrs by Annexin V-FITC/propidium iodide staining based flow cytometric analysis (reference value: 2.1%); type: functional
[14] = test system: MCF7/PTX; assay: Induction of apoptosis in human MCF7/PTX cells assessed as necrotic cells at 6 uM incubated for 12 hrs by Annexin V-FITC/propidium iodide staining based flow cytometric analysis (reference value: 2.1%); type: functional
[15] = test system: MCF7/PTX; assay: Induction of apoptosis in human MCF7/PTX cells assessed as live cells at 4 uM incubated for 12 hrs by Annexin V-FITC/propidium iodide staining based flow cytometric analysis (reference value: 95.9%); type: functional
[16] = test system: MCF7/PTX; assay: Induction of apoptosis in human MCF7/PTX cells assessed as late apoptotic cells at 2 uM incubated for 12 hrs by Annexin V-FITC/propidium iodide staining based flow cytometric analysis (reference value: 0.9%); type: functional
[17] = test system: MCF7/PTX; assay: Induction of apoptosis in human MCF7/PTX cells assessed as early apoptotic cells at 0.5 uM incubated for 12 hrs by Annexin V-FITC/propidium iodide staining based flow cytometric analysis (reference value: 1.1%); type: functional
[18] = test system: K562; assay: Cytotoxicity against human K562 cells incubated for 48 hrs by MTT assay; type: functional, cell-based; conditions: K562, 48 h
[19] = test system: MCF7/PTX; assay: Induction of apoptosis in human MCF7/PTX cells assessed as necrotic cells at 0.5 uM incubated for 12 hrs by Annexin V-FITC/propidium iodide staining based flow cytometric analysis (reference value: 2.1%); type: functional
[20] = Toxicity in ICR mouse xenografted with […] H22 cells assessed as change in body weight at 12 umol/kg administered once every 2 days via peritumoral route for 2 weeks; conditions: in vivo, other
[21] = test system: MCF7/PTX; assay: Induction of apoptosis in human MCF7/PTX cells assessed as increase in cleaved caspase 3 level in cytoplasm at 3 uM incubated for 2 hrs by Western blot analysis; type: functional, cell-based
[22] = test system: MCF7/PTX; assay: Induction of apoptosis in human MCF7/PTX cells assessed as late apoptotic cells at 1 uM incubated for 12 hrs by Annexin V-FITC/propidium iodide staining based flow cytometric analysis (reference value: 0.9%); type: functional
[23] = test system: MCF7/PTX; assay: Induction of apoptosis in human MCF7/PTX cells assessed as early apoptotic cells at 4 uM incubated for 12 hrs by Annexin V-FITC/propidium iodide staining based flow cytometric analysis (reference value: 1.1%); type: functional
[24] = test system: MCF7/PTX; assay: Induction of apoptosis in human MCF7/PTX cells assessed as early apoptotic cells at 2 uM incubated for 12 hrs by Annexin V-FITC/propidium iodide staining based flow cytometric analysis (reference value: 1.1%); type: functional
[25] = test system: MCF7/PTX; assay: Induction of apoptosis in human MCF7/PTX cells assessed as live cells at 6 uM incubated for 12 hrs by Annexin V-FITC/propidium iodide staining based flow cytometric analysis (reference value: 95.9%); type: functional
[26] = test system: MCF7/PTX; assay: Induction of apoptosis in human MCF7/PTX cells assessed as necrotic cells at 4 uM incubated for 12 hrs by Annexin V-FITC/propidium iodide staining based flow cytometric analysis (reference value: 2.1%); type: functional
[27] = test system: Erythrocyte; assay: Hemolytic activity in Wistar rat erythrocytes incubated for 1 hr; type: ADME, cell-based
[28] = test system: SK-OV-3; assay: Cytotoxicity against human SKOV3 cells incubated for 48 hrs by MTT assay; type: functional, cell-based; conditions: SK-OV-3, 48 h
[29] = Solubility of the compound in water; type: physicochemical
[30] = test system: MCF7/PTX; assay: Induction of apoptosis in human MCF7/PTX cells assessed as late apoptotic cells at 3 uM incubated for 12 hrs by Annexin V-FITC/propidium iodide staining based flow cytometric analysis (reference value: 0.9%); type: functional
[31] = test system: MCF7/PTX; assay: Induction of apoptosis in human MCF7/PTX cells assessed as early apoptotic cells at 1 uM incubated for 12 hrs by Annexin V-FITC/propidium iodide staining based flow cytometric analysis (reference value: 1.1%); type: functional
[32] = test system: HUVEC; assay: Cytotoxicity against HUVEC incubated for 48 hrs by MTT assay; type: cell-based; conditions: Homo sapiens
[33] = test system: MCF7/PTX; assay: Induction of apoptosis in human MCF7/PTX cells incubated for 12 hrs by Annexin V-FITC/propidium iodide staining-based flow cytometric analysis; type: functional, cell-based
[34] = test system: MCF7/PTX; assay: Induction of apoptosis in human MCF7/PTX cells assessed as live cells at 0.5 uM incubated for 12 hrs by Annexin V-FITC/propidium iodide staining based flow cytometric analysis (reference value: 95.9%); type: functional
[35] = test system: A2780; assay: Cytotoxicity against human A2780 cells incubated for 48 hrs by MTT assay; type: functional, cell-based; conditions: A2780, 48 h
[36] = test system: MCF7/PTX; assay: Induction of apoptosis in human MCF7/PTX cells assessed as necrotic cells at 1 uM incubated for 12 hrs by Annexin V-FITC/propidium iodide staining based flow cytometric analysis (reference value: 2.1%); type: functional
[37] = test system: MCF7/PTX; assay: Induction of membrane disruption in human MCF7/PTX cells incubated for 12 hrs by LDH release assay; type: functional, cell-based
[38] = test system: MCF7/PTX; assay: Induction of apoptosis in human MCF7/PTX cells assessed as live cells at 2 uM incubated for 12 hrs by Annexin V-FITC/propidium iodide staining based flow cytometric analysis (reference value: 95.9%); type: functional
[39] = test system: MCF7/PTX; assay: Induction of apoptosis in human MCF7/PTX cells assessed as late apoptotic cells at 6 uM incubated for 12 hrs by Annexin V-FITC/propidium iodide staining based flow cytometric analysis (reference value: 0.9%); type: functional
[40] = test system: MCF7/PTX; assay: Induction of apoptosis in human MCF7/PTX cells assessed as necrotic cells at 2 uM incubated for 12 hrs by Annexin V-FITC/propidium iodide staining based flow cytometric analysis (reference value: 2.1%); type: functional
[41] = test system: MCF7/PTX; assay: Induction of apoptosis in human MCF7/PTX cells assessed as live cells at 3 uM incubated for 12 hrs by Annexin V-FITC/propidium iodide staining based flow cytometric analysis (reference value: 95.9%); type: functional
[42] = test system: MCF7/PTX; assay: Induction of membrane disruption in human MCF7/PTX cells at 3 uM incubated for 12 hrs by AO/EB double staining based fluorescence microscopic method; type: functional, cell-based
[43] = test system: MCF7/PTX; assay: Cytotoxicity against human MCF7/PTX cells incubated for 48 hrs by MTT assay; type: functional, cell-based

Tubulin (Sus scrofa), sequence (P02550 whole entry, looked up): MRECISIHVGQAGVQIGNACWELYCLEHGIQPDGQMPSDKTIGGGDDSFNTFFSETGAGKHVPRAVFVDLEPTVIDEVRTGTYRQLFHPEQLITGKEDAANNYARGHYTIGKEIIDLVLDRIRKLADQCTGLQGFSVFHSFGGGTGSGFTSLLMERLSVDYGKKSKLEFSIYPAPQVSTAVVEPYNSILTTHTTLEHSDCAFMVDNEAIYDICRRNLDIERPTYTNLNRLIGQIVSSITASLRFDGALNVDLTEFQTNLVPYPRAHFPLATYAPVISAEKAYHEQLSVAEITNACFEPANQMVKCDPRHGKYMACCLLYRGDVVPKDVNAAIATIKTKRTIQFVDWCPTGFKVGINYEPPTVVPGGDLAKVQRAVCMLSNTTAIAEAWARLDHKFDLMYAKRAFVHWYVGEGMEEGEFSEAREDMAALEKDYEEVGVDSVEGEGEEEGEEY
Tubulin (Sus scrofa), sequence (P02554 whole entry, looked up): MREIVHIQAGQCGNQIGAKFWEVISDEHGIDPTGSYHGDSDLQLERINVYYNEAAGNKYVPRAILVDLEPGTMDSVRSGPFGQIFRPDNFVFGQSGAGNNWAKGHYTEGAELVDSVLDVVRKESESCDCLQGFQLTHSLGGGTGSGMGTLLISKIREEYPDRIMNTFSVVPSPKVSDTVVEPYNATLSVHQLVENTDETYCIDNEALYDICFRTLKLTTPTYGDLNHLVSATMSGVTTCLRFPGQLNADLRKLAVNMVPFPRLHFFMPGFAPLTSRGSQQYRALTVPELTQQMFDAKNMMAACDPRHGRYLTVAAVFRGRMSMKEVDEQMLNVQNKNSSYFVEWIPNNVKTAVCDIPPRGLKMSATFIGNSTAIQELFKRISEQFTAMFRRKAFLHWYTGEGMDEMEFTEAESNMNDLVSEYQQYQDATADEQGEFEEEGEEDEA

In the case of CC(=O)O[C@H]1C(=O)[C@@]2(C)[C@H]([C@H](OC(=O)c3ccccc3)[C@]3(O)C[C@H](OC(=O)[C@H](OC(=O)CCCCCN4C(=O)CC(SC[C@H](NC(=O)[C@H](CCCNC(=N)N)NC(=O)[C@H](CCCNC(=N)N)NC(=O)[C@H](CC(C)C)NC(=O)[C@H](CCCNC(=N)N)NC(=O)[C@H](CCCNC(=N)N)NC(=O)[C@H](Cc5ccccc5)NC(=O)[C@H](Cc5ccccc5)NC(=O)[C@H](CCCNC(=N)N)NC(=O)[C@H](CCCNC(=N)N)NC(=O)[C@H](Cc5ccccc5)NC(=O)[C@H](CCCNC(=N)N)NC(=O)[C@H](CCCNC(=N)N)NC(=O)[C@@H](NC(=O)[C@H](CC(C)C)NC(=O)CC[C@H](NC(=O)c5ccc(NCc6cnc7nc(N)[nH]c(=O)c7n6)cc5)C(=O)O)C(C)C)C(=O)N[C@H](C(=O)N[C@@H](CC(C)C)C(=O)N[C@@H](CC(C)C)C(N)=O)C(C)C)C4=O)[C@@H](NC(=O)c4ccccc4)c4ccccc4)C(C)=C1C3(C)C)[C@]1(OC(C)=O)CO[C@@H]1C[C@@H]2O (stereo partly drawn) ({Pteroyl-γGlu}-LVRRFRRFFRRLRRC(X1)VLL-NH2), the Activity [1] is reported as 54.6%, the Activity [2] is reported as “Active” and the IC50 [3] is reported as 1.39 µM. The half-life at 500 ug/ml [4] was 5.9 h, the Activity [5] was 1.2% and the Activity [6] was “Active”. For the same molecule, the Activity [7] was “Dose-dependent effect”, the Activity [8] was “Active” and the Activity [9] was 1.3%. It also gave an inhibition in vivo at 12 µmol/kg [10] of 69%, an Activity [11] of 7.4% and an Activity [12] of 81.4%. It also gave an Activity [13] of 5.6%, an Activity [14] of 7.5% and an Activity [15] of 28.8%. It also gave an Activity [16] of 28.8%, an Activity [17] of 2.4% and an IC50 [18] of 3.85 µM. For the same molecule, the Activity [19] was 7.1%, the Activity [20] was “Non-Toxic” and the Activity [21] was “Active”. The Activity [22] was 11.4%, the Activity [23] was 1.4% and the Activity [24] was 1.5%. The Activity [25] was 29.2%, the Activity [26] was 15.1% and the Activity [27] was “Toxic”. The IC50 [28] was 5.49 µM, the solubility [29] was greater than 20 mg/mL and the Activity [30] was 41.6%. The Activity [31] was 1.6%, the IC50 [32] was 45.2 µM and the Activity [33] was “Dose-dependent effect”. The Activity [34] was 83.1%, the IC50 [35] was 1.42 µM and the Activity [36] was 5.6%. The Activity [37] was “Dose-dependent effect”, the Activity [38] was 65.8% and the Activity [39] was 62%. The Activity [40] was 3.9%, the Activity [41] was 51.6% and the Activity [42] was “Active”. The IC50 [43] was 2.92 µM.
